Patent US20230026232A1, “AHR INHIBITORS AND USES THEREOF” (Ikena Oncology, Inc., priority 2019, published 2023)

Columns and labels:
[1] = Two stage gastric transfer non-sink dissolution test (0.1N HCl then FaSSIF); assay type: physicochemical; conditions: 100 RPM
Method: In vitro drug dissolution performance for both API forms and each SDI was evaluated by the two stage ‘gastric transfer’ non-sink dissolution test (Table 8), which simulates pH and bile salt concentrations for both gastric and intestinal exposure in a sample to perform assay. Pre-weighed SDI powder is briefly suspended in media (e.g., by 10 sec vortex mixing with 4.0 mL media) and transferred to a pre-heated (37° C.) volume of 50 mL of 0.1N HCl (aq) (simulated gastric fluid or SGF, pH ˜1.0, without pepsin or bile salts), in a USP Type 2 mini-vessel (100 mL total vessel volume) while stirring (paddles) at 100 rpm. […] Initial Compound A API measurements and SDI dissolution samples were determined utilizing a HPLC method (Table 7). […]

AHR [2] = test: Pharmacodynamics: VAG539-induced CYP1A1 mRNA in mouse liver and spleen; assay type: in vivo, C57BL/6 mice; conditions: 25 mg/kg Compound A oral
Method: The pharmacodynamic effect of Compound A on the inhibition of AHR-dependent gene expression in liver and spleen was examined in C57BL/6 mice.
Mice were sacrificed at 4 and 10 hours post-dose and RNA was extracted and gene expression of CYP1A1 and the housekeeping gene mouse glyceraldehyde 3-phosphate dehydrogenase were quantified. CYP1A1 mRNA expression levels for each dose group for liver and spleen tissues were normalized to the control group.

AHR [3] = test: AHR activity in human and rodent cell lines (summary); assay type: cell-based
From the text: Compound A is a selective AHR antagonist being developed as an orally administered therapeutic. […] Compound A inhibits CYP1A1 and interleukin (IL)-22 gene expression and leads to an increase in pro-inflammatory cytokines, such as IL-2 and IL-9.

AHR [4] = molecular target: T1, AHR (Homo sapiens, UniProt P35869); test: CYP1A1 expression in CD3/CD28 activated human T cells (qRT-PCR); assay type: cell-based; set-up: endogenous in cells; conditions: 24 hours
T1 sequence (P35869 11-848): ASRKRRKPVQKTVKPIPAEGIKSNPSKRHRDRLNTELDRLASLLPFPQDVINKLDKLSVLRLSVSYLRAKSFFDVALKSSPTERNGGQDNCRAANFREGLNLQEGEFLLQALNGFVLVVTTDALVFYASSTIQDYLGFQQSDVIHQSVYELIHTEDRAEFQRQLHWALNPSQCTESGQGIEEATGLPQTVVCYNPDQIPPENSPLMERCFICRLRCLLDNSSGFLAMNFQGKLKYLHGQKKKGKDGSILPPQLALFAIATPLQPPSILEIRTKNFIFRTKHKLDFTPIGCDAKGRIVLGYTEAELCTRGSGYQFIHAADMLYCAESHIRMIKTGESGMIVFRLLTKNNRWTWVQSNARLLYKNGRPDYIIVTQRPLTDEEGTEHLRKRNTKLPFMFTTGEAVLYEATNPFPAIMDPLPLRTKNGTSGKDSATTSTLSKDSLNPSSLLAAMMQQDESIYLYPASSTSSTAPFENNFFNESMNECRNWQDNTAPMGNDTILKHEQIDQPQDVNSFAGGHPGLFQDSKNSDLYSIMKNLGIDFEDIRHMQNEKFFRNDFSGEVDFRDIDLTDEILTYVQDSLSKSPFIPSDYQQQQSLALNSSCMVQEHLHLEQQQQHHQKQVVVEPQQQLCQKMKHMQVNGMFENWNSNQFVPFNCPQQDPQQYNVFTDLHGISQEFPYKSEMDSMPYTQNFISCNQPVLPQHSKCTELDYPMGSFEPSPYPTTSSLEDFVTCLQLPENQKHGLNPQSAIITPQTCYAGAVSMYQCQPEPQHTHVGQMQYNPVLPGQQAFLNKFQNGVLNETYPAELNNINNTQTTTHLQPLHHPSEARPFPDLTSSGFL
Method: AHR plays a key role in immune cells and its' inhibition is proposed to reverse immune suppression and activate T cells. The ability of Compound A to inhibit AHR-dependent CYP1A1 expression and cytokine production was assessed in primary human T cells. AHR directly regulates the expression of the immune suppressive cytokine IL-22. Human T cells isolated from healthy donor PBMCs were activated with CD3/CD28 tetramer and incubated for 24 hours with Compound A. Cell pellets were processed for RNA isolation and CYP1A1 analysis by quantitative reverse-transcriptase polymerase chain reaction. For the cytokine analysis assay, CD3/CD28 activated T cells were treated with Compound A, and culture supernatants were collected after 48 hours for analysis of IL-22 levels using Meso Scale Discovery V-plex IL-22 plates. Compound A inhibited AHR-dependent gene expression in activated human T cells by decreasing expression of CYP1A1 in a concentration-dependent manner.

CC(C)c1cnn2c(N[C@@H]3CCc4[nH]c5ccccc5c4C3)nc(-c3cncc(F)c3)nc12 [Compound A, (R)—N-(2-(5-fluoropyridin-3-yl)-8-isopropylpyrazolo[1,5-a][1,3,5]triazin-4-yl)-2,3,4,9-tetrahydro-1H-carbazol-3-amine]
AUC35-210 FaSSIF (area under the curve after transfer to FaSSIF from 35 to 210 minutes) [1]: 2100 min*μgA/mL
C210 (drug concentration at 180 minutes after transfer to FaSSIF) [1]: 4.5 μgA/mL
inhibition of CYP1A1 mRNA increases induced by VAG539 in the liver (AHR [2]; with 30 mg/kg VAG539): Complete inhibition
inhibition of CYP1A1 mRNA induction in the spleen (AHR [2]; with 30 mg/kg VAG539, at 4 hours): complete inhibition
IC50 (AHR [3]): 35 to 150 nM
IC50 (AHR [4]): 63 nM
